The record followed here is publication PMC10702189, “Tetrazine Glycoconjugate for Pretargeted Positron Emission Tomography Imaging of trans-Cyclooctene-Functionalized Molecular Spherical Nucleic Acids” (ACS Omega, 2023).

The nature of this series: Stability in end product formulation by analytical radio-HPLC. The series is classed as physicochemical. The note with it: for 6 h from EOS, end product formulation (PBS, ethanol ≤10%) at r.t. The protocol: Chemical and radiochemical purity and stability of precursors and radiotracers were measured with analytical HPLC (Hitachi LaChrom Elite, Schaumburg, USA). Jupiter Proteo reversed-phase C18 column (4 μm, 250 mm × 4.6 mm) was used at a flow rate of 1 mL/min. HPLC eluents were A, 0.1% trifluoroacetic acid (TFA, v/v) in water; B, 0.1% TFA in acetonitrile. The gradient changed from 15% to 35% in 0–15 min. For radiolabeled MSNA quality control, SEC at a flow rate of 1 mL/min was used (Waters Protein-Pak 33SW (7.5 × 300 mm), eluent 0.1 M KH2PO4, pH 7.0).
The cyclotron produced [^18F]fluoride, dissolved in ^18O-enriched water (Rotem Industries Limited, Arava, Israel), was trapped in a Sep-Pak QMA Plus Light cartridge (Waters, preconditioned with 10 mL of 0.5 M K2CO3, 15 mL of water). [^18F]F^– was eluted from the cartridge with 2 mL of QMA-eluent solution (stock solution contains 237.5 mg of Kryptofix 2.2.2, 42.5 mg of potassium carbonate, 2 mL of Milli-Q water in 50 mL of acetonitrile). The reaction mixture was evaporated to dryness with Ar gas flow (70 mL/min for 10 min, and then 80 mL/min for 5–10 min more) under heating at 120 °C. […] The stability of [^18F]FDG-Tz was analyzed by analytical radio-HPLC up to 6 h after EOS in the end product formulation at r.t.

Take `O=C(CCON=C[C@H]([18F])[C@@H](O)[C@H](O)[C@H](O)CO)NCc1ccc(-c2nncnn2)cc1` [[^18F]FDG-Tz]: the “Radiochemical purity retained (stability)” value was greater than 98%.
